Numbered stars: 1 amine (or outer) side, 2 acyl side, 3 side chain; on linkers, the order of the positions; unused ones are H or OH. Square brackets hold non-standard residues; d marks the D form. Side chains are listed from the residue outwards. Peptide text beside a SMILES is read from it. * marks the point of attachment. C18 diacid = O=C(O)CCCCCCCCCCCCCCCCC(=O)*; γGlu = O=C(O)[C@H](CCC(=O)[*:2])N[*:1]; Ac4c = NC1(C(=O)O)CCC1; AEEA = NCCOCCOCC(=O)O; Aib = CC(C)(N)C(=O)O
Tests used:
DIO mice [1] = experiment: Subchronic effect on body weight, body composition and food intake in DIO mice; format: in vivo, mouse
Description: Male C57Bl/6J mice were purchased from Jackson Lab (Bar Harbour, ME) or Taconic, (Denmark). Male Sprague Dawley rats were purchased from Taconic (Denmark). Lean animals were fed regular chow diet (Altromin 1324, Brogaarden, Denmark). Obese animals were fed a high-fat diet, 45% kcal from fat (D12492, Research Diets, New Brunswick, NJ) from the age of 4–6 weeks in order to obtain a diet induced obese (DIO) phenotype. Animals were housed under temperature and humidity-controlled conditions in a 12:12 hr light:dark cycle (lights on at 6 a.m.). Rats were housed three per cage during high fat feeding and were single housed five weeks prior to study. Mice were single housed, two per cage, with a partitioning wall where possible. All animals had ad libitum access to diet and water, except when fasted prior to experimental procedures. Animals were acclimatized to study conditions (energy expenditure cages, daily mock handling etc) at least one week prior to first dose. […] At the time of study, animals were 20–30 weeks old with a body weight of 45–50 g (DIO mice) or approximately 600 g (DIO rats).
(§1) DIO mice received s.c. injections once daily for 4–5 weeks. Animals were dosed at different times of day to allow for assessment of glucose tolerance and other metabolic parameters at same time of day but at different time points in relation to dosing. […] Body composition was assessed in conscious animals by Magnetic Resonance (MR) scanning prior to initiation of treatment and at the end of the treatment period. Steady-state plasma parameters were assessed in non-fasted animals. Additional DIO mice (n = 4) were included for verification of 24-h peptide exposure in steady state. The mice received s.c. doses daily for 2 weeks (13 days) with 3 nmol/kg NN1177; 5 nmol/kg NN1151 or 5 nmol/kg NN1359, where after plasma sampled after t = 5 h (NN1177) or 6 h (NN1151, NN1359), 10 h (all co-agonists) and 24 h (all co-agonists) post-dosing was analysed for exposure.
(§2) Analogues were tested for subchronic effect in two different set-ups. […] The Cmax and Cmin animals were included in separate treatment groups and evaluated head-to-head for glucose tolerance and additional metabolic parameters at the end of the treatment period. […] IPGTT was performed as described above, but additionally blood was sampled from vena facialis of conscious animals at t = 210 min relative to the administration of glucose for exposure analysis.
(§3) IPGTT was performed as described above.
All in vivo data are presented as mean ±SEM. […] For the comparison of NN1177, NN1151 and NN1359 on glucose tolerance, vehicle-subtracted values were used to enable comparison across studies.

Rat GLP-1R = target: T1, Rat GLP-1R (Rattus norvegicus, UniProt P32301); experiment: Receptor binding, SPA competitive binding assay; conditions: SPA competitive binding on BHK cell membranes, [125I]-GLP-1(7–36)-NH2 tracer, 1% species specific plasma, 2 h 30°C; value (95% CI)
T1 construct: a plasmid encoding either the glucagon receptor or the GLP-1 receptor from the relevant species; expressed in transfected cells
T1 sequence (P32301 22-463): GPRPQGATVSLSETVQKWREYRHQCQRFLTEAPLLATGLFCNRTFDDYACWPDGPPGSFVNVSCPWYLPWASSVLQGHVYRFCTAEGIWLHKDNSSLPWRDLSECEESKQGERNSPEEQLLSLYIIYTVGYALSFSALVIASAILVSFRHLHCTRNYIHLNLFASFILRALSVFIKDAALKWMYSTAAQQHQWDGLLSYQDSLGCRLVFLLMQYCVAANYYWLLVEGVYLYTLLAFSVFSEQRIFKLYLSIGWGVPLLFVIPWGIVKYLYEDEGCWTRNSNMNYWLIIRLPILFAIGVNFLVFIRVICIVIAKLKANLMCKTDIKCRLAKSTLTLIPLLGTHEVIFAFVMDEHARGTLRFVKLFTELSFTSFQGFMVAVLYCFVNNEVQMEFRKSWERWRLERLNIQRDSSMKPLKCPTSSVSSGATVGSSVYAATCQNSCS
Method: (§4) The binding assay was performed on cell membranes in the presence of 1% (v/v) species-specific heparin-treated pooled plasma (Bioreclamation IVT, Westbury, NY) diluted in assay buffer (50 mM HEPES supplemented with 5 mM EGTA, 5 mM MgCl2, and 0.005% (v/v) Tween 20, pH7.4). […] Cells stably expressing an individual receptor of interest were grown at 5% CO2, 37°C in DMEM (supplemented with 10% FCS, 0.5 mg/ml G418 and 0.3 mg/ml hygromycin). Membrane preparations were made from cells harvested at approximately 80% confluence, washed and homogenized in 20 mM HEPES with 0.1 mM EDTA, pH 7.4. Protein concentration was determined, and the membranes were stored at -80°C until use. The membrane binding assay was performed in a 96-well OptiPlate (PerkinElmer) in a total volume of 200 μl. Test compounds were dissolved in 80% DMSO and further diluted in assay buffer. 50 μl of diluted plasma was added to the assay plate wells followed by addition of test compounds (25 μl), cell membranes (50 μl, 0.06 mg/ml), SPA beads (20 mg/ml in assay buffer) and radioligand (60,000 cpm/well, corresponding to 0.06 nM; 2200 Ci/mmol. Each assay plate was incubated for 2 h at 30°C, centrifuged at 1500 rpm for 10 minutes and counted in a TopCount NXT instrument (PerkinElmer).
(§5) For the receptor binding assays, logIC50 values were calculated using non-linear regression analysis. The error estimation was reported as the 95% confidence interval. […] The calculations were performed in GraphPad Prism 6.4 (GraphPad, San Diego, CA) and error estimation was expressed as the 95% confidence interval. […] Averages, error estimation, ratios and plasma shifts were all calculated on logIC50 or logEC50 values and transformed to the anti-log values for reporting purposes.

Human GLP-1R = Human GLP-1R (Homo sapiens, UniProt P43220); experiment: Receptor binding, SPA competitive binding assay; conditions: for IC50: SPA competitive binding on BHK cell membranes, [125I]-GLP-1(7–36)-NH2 tracer, 1% species specific plasma, 2 h 30°C, value (95% CI)
Human GLP-1R, sequence (P43220 24-463): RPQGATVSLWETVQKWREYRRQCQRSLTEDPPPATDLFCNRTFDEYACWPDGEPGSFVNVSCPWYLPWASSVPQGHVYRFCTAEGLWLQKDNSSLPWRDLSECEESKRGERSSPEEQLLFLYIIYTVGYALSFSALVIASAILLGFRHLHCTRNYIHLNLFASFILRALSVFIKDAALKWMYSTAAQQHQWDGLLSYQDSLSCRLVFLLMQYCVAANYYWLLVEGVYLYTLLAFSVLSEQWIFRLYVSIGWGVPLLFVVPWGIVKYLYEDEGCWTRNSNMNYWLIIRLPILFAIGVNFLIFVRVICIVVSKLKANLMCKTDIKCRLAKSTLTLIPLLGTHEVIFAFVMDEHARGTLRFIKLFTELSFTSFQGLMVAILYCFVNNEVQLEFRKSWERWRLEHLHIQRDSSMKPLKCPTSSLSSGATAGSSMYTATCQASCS
Method: as §4, §5

DIO mice [2] = experiment: Subchronic effect on glucose tolerance in DIO mice (IPGTT at steady state); format: in vivo, mouse
Method: Compound exposure was measured by Luminescence Oxygen Channeling Immunoassay (LOCI). […] The three reactants were combined with the analyte and formed a two-sited immuno-complex. Illumination of the complex released singlet oxygen […] from the donor beads. They were channeled into the acceptor beads and triggered a chemiluminescence response which was measured in an EnVision plate reader (PerkinElmer). The amount of light was proportional to the concentration of the analyte. As calibrators, a dilution line of the relevant analyte in rat/mouse plasma was included.
Animals were fasted for 5–6 h prior to intraperitoneal (i.p.) injection of 2 g/kg glucose. Blood glucose was analysed on whole blood from the tail vein of conscious animals using a Biosen S-line glucose analyzer (EKF-diagonistic Gmbh, Barleben, Germany) by the glucose oxidase method, at basal and at t = 15, 30, 60, 90, 180 min post glucose administration.
as §1, §2, §3

[3] = steady state 5 weeks, 3 and 5 nmol/kg, Cmax (5 h post dosing), p<0.001

Binding affinity to GLP-1 receptors relative to glucagon receptors (Human GLP-1R; across human, mouse and rat receptor binding assays, 1% plasma) | SMILES | Body weight reduction (DIO mice [1]; 5 nmol/kg s.c. once daily, 4–5 weeks, p<0.001) | IC50 (Rat GLP-1R) [nM] | IC50 (Human GLP-1R) [nM] | Body weight reduction (DIO mice [1]; 3–5 nmol/kg s.c. once daily, 5 weeks) | Glucose tolerance (IPGTT) vs vehicle (DIO mice [2]; steady state 5 weeks, 3 nmol/kg, Cmin (24 h post dosing), p<0.001) | Glucose tolerance (IPGTT) vs vehicle (DIO mice [2]; steady state 5 weeks, 5 nmol/kg, Cmin (24 h post dosing)) | Basal blood glucose vs vehicle (DIO mice [2]; [3]) | Glucose tolerance (IPGTT) vs vehicle (DIO mice [2]; [3]) | Basal blood glucose vs vehicle (DIO mice [2]; steady state 5 weeks, Cmin (24 h post dosing), p<0.001) | Effect on body weight (DIO mice [1]; 1 nmol/kg s.c. once daily, 4 weeks) | Effect on body weight / tolerated weight loss (DIO mice [1]; 10 and 30 nmol/kg s.c. once daily, maximum ethically tolerated weight loss reached) | Glucose tolerance (IPGTT) vs vehicle (DIO mice [2]; steady state, after 3 weeks daily s.c. dosing, Cmax (5 h post dosing), p<0.001) | Basal blood glucose vs vehicle (DIO mice [2]; steady state, after 4 weeks daily s.c. dosing, Cmin (24 h post dosing)) | Glucose tolerance (IPGTT) vs vehicle (DIO mice [2]; steady state, after 4 weeks daily s.c. dosing, Cmin (24 h post dosing), p<0.001)
 | CC(C)C[C@H](NC(=O)[C@H](CC(C)C)NC(=O)[C@H](Cc1c[nH]c2ccccc12)NC(=O)[C@H](CCC(N)=O)NC(=O)[C@@H](NC(=O)[C@H](Cc1ccccc1)NC(=O)[C@H](CCC(=O)O)NC(=O)[C@H](CCCNC(=N)N)NC(=O)[C@H](C)NC(=O)[C@H](C)NC(=O)[C@H](CCCNC(=N)N)NC(=O)[C@H](CO)NC(=O)[C@H](CC(=O)O)NC(=O)[C@H](CC(C)C)NC(=O)[C@H](Cc1ccc(O)cc1)NC(=O)[C@H](CCCCN)NC(=O)[C@H](CO)NC(=O)[C@H](CC(C)C)NC(=O)[C@H](CC(=O)O)NC(=O)[C@H](CO)NC(=O)[C@@H](NC(=O)[C@H](Cc1ccccc1)NC(=O)[C@@H](NC(=O)CNC(=O)[C@H](CCC(=O)O)NC(=O)C(C)(C)NC(=O)[C@@H](N)Cc1c[nH]cn1)[C@@H](C)O)[C@@H](C)O)C(C)C)C(=O)N[C@@H](CC(N)=O)C(=O)N[C@@H](CCCCNC(=O)CC[C@H](NC(=O)CC[C@H](NC(=O)COCCOCCNC(=O)COCCOCCNC(=O)CC[C@H](NC(=O)CCCCCCCCCCCCCCCCC(=O)O)C(=O)O)C(=O)O)C(=O)O)C(N)=O [GLP-1 reference] (H-H[Aib]EGTFTSDLSKYLDSRAAREFVQWLLNK([γGlu-γGlu-AEEA-AEEA-γGlu-C18 diacid])-NH2) | 10%-17% |  |  |  |  |  |  |  |  |  |  |  |  | 
two-to four-fold | CC(C)C[C@H](NC(=O)[C@H](Cc1ccc(O)cc1)NC(=O)[C@H](CCCCN)NC(=O)[C@H](CO)NC(=O)[C@H](CC(C)C)NC(=O)[C@H](CC(=O)O)NC(=O)[C@H](CO)NC(=O)[C@@H](NC(=O)[C@H](Cc1ccccc1)NC(=O)[C@@H](NC(=O)CNC(=O)[C@H](CCC(N)=O)NC(=O)C(C)(C)NC(=O)[C@@H](N)Cc1c[nH]cn1)[C@@H](C)O)[C@@H](C)O)C(=O)N[C@@H](CCC(=O)O)C(=O)N[C@@H](CO)C(=O)N[C@@H](CCCCN)C(=O)N[C@@H](CCCNC(=N)N)C(=O)N[C@@H](C)C(=O)N[C@@H](CCCNC(=N)N)C(=O)N[C@@H](CCC(=O)O)C(=O)N[C@@H](Cc1ccccc1)C(=O)N[C@H](C(=O)N[C@@H](CCC(N)=O)C(=O)N[C@@H](Cc1c[nH]c2ccccc12)C(=O)N[C@@H](CC(C)C)C(=O)N[C@@H](CC(C)C)C(=O)N[C@@H](CCCCNC(=O)CC[C@H](NC(=O)CC[C@H](NC(=O)[C@H](CO)NC(=O)[C@H](CCC(=O)O)NC(=O)[C@H](CO)NC(=O)CC[C@H](NC(=O)CC[C@H](NC(=O)CCCCCCCCCCCCCCCCC(=O)O)C(=O)O)C(=O)O)C(=O)O)C(=O)O)C(=O)N[C@H](C(N)=O)[C@@H](C)O)C(C)C [NN1177] (H-H[Aib]QGTFTSDLSKYLESKRAREFVQWLLK([γGlu-γGlu-Ser-Glu-Ser-γGlu-γGlu-C18 diacid])T-NH2) |  | 0.17 | 0.64 | 22–33% | impaired | at the level of vehicle | improved | improved | improved |  |  |  |  | 
 | CC(C)C[C@H](NC(=O)[C@H](CC(=O)O)NC(=O)[C@H](CC(C)C)NC(=O)[C@H](Cc1ccc(O)cc1)NC(=O)[C@H](CCCCN)NC(=O)[C@H](CO)NC(=O)[C@H](CC(C)C)NC(=O)[C@H](CC(=O)O)NC(=O)[C@H](CO)NC(=O)[C@@H](NC(=O)[C@H](Cc1ccccc1)NC(=O)[C@@H](NC(=O)CNC(=O)[C@H](CCC(N)=O)NC(=O)C1(NC(=O)[C@@H](N)Cc2c[nH]cn2)CCC1)[C@@H](C)O)[C@@H](C)O)C(=O)N[C@@H](CCCNC(=N)N)C(=O)N[C@@H](CCCNC(=N)N)C(=O)N[C@@H](C)C(=O)N[C@@H](CCCNC(=N)N)C(=O)N[C@@H](CC(=O)O)C(=O)N[C@@H](Cc1ccccc1)C(=O)N[C@H](C(=O)N[C@@H](CCC(N)=O)C(=O)N[C@@H](Cc1c[nH]c2ccccc12)C(=O)N[C@@H](CC(C)C)C(=O)N[C@@H](CC(C)C)C(=O)N[C@@H](CCCCNC(=O)CC[C@H](NC(=O)CC[C@H](NC(=O)COCCOCCNC(=O)COCCOCCNC(=O)CC[C@H](NC(=O)CC[C@H](NC(=O)CCCCCCCCCCCCCCCCC(=O)O)C(=O)O)C(=O)O)C(=O)O)C(=O)O)C(=O)N[C@H](C(N)=O)[C@@H](C)O)C(C)C [NN1151] (H-H[Ac4c]QGTFTSDLSKYLDLRRARDFVQWLLK([γGlu-γGlu-AEEA-AEEA-γGlu-γGlu-C18 diacid])T-NH2) |  | 1.72 | 1.52 |  |  |  |  |  |  | No effect | majority of mice had to be terminated prematurely | improved | at the level of vehicle treated animals | significantly impaired
